Entries after “also recorded” stand apart in the source; their conditions may differ.

For test [1], the system named is murine hair follicle cycling. The following applies: small molecule screen of calcium blockers; mice. The procedure:
To understand how calcium signaling controls hair follicle stem cell regulation, a screen for small molecules that affect murine hair follicle cycling was carried out. The compounds included a survey of different classes of cell permeable slow and fast channel blockers applied to the skin.
We performed a small molecule screen to find out if any of the available calcium blockers affected hair follicle cycling.

Test [2] deals with bulge stem cells of Cav fx/-; K15 CrePR mice. Put plainly: Verapamil treatment of RU486 treated Cav fx/-; K15 CrePR mice. It is filed as in vivo, mouse. An excerpt:
Loss of function mutation of this channel entails a removal of exon 13 and 14 of Cav 1.2 gene (FIG. 1). […] Cav fx/- mice were crossed to K15CrePR animals to remove the pore region of the channel in the bulge stem cells. RU486 treatment of Cav fx/-; K15CrePR allowed the removal of the pore region. […] Loss of function mutation, which represents the closed state of this channel, results in the same phenotype as the open state of the channel.

The next test has as its system bulge stem cells. Put plainly: microarray analysis and RT-PCR on Verapamil treated bulge cells. It counts as in vivo, mouse. An excerpt: Out of those, the gene Follistatin like 1 (Fstl1) stood out. Fstl1 is a secreted glycoprotein that inhibits BMP signaling in lung and ureter development.
There are other BMP inhibitors that are known to affect hair cycling.

In test [3] the test system is hair follicles of wild type mice. The test is described as follows: Verapamil treatment of wild type mice in first telogen.
A further test deals with hair cycling. Put plainly: subcutaneous injection of Fstl1 protein soaked beads, effect on hair cycling. As to conditions: half dose (2 μg) soaked beads, Day 21-22 mice. It counts as in vivo, mouse. The procedure:
To understand the effect of Fstl1 on hair cycling, we subcutaneously injected two different doses of Fstl1 protein (4 μg and 2 μg) soaked beads to Day 21-22 mice. In 2 to 4 days, these mice went into anagen (n=8, FIG. 7D).

[4] abbreviates: treated bulge stem cells vs control bulge stem cells.

As for `COc1ccc([C@@H]2Sc3ccccc3N(CCN(C)C)C(=O)[C@@H]2OC(C)=O)cc1` [Diltiazem, diltiazem], in test [1], the entry to anagen entry is recorded as “showed the same results; also recorded: precocious entry into anagen”.

For the molecule `COc1ccc(CCN(C)CCCC(C#N)(c2ccc(OC)c(OC)c2)C(C)C)cc1OC` (stereo not shown) [Verapamil, verapamil], the “anagen entry later than wild type littermates” value in test [2] (drug treated Cav fx/-, K15 CrePR mutant mice, RU486 treated) fell in the range of 2 to 4 days. Besides, the “H and E staining of skin sections” value in test [2] (treated mice vs control skin with telogen hair follicles) was “anagen hair follicles”. In the test with bulge stem cells (treated bulge stem cells), the Bambi expression entry was “downregulated” and the Noggin expression entry is on record as “downregulated”. Also, in the test with bulge stem cells (setting [4]), the “Fstl1 expression (RT-PCR)” value is recorded as “upregulated” and the Tmeff1 expression entry is recorded as “does not change much”. For the same molecule, the “H and E staining of skin sections” value in test [3] (drug treated wild type mice vs telogen hair follicles in control mice) is recorded as “anagen hair follicles”. Further, the “early anagen (advance of anagen entry)” value in test [3] (wild type mice treated between days 21 and 28 (first telogen), n=8) fell in the range of 5 to 7 days.

B1: Fstl1 protein: secreted glycoprotein that inhibits BMP signaling; deduced 308-amino acid protein with FS module (protein, UniProt Q12841 21-308, looked up)
Follistatin-related protein 1: EEELRSKSKICANVFCGAGRECAVTEKGEPTCLCIEQCKPHKRPVCGSNGKTYLNHCELHRDACLTGSKIQVDYDGHCKEKKSVSPSASPVVCYQSNRDELRRRIIQWLEAEIIPDGWFSKGSNYSEILDKYFKNFDNGDSRLDSSEFLKFVEQNETAINITTYPDQENNKLLRGLCVDALIELSDENADWKLSFQEFLKCLNPSFNPPEKKCALEDETYADGAETEVDCNRCVCACGNWVCTAMTCDGKNQKGAQTQTEEEMTRYVQELQKHQETAEKTKRVSTKEI
With B1, the entry to anagen result in the test with hair cycling is “only partial entry to anagen”.

(Values after US9333209B2, “Compositions for increasing hair growth” (The Board of Trustees of the Leland Stanford Junior …, priority 2012, dated 2016).)
